From ChEMBL document CHEMBL3046822, “Synthesis, antiplatelet aggregation activity, and molecular modeling study of novel substituted-piperazine analogues” (2011)
Calls of active or inactive are those of the source. No cut-off for these calls is given here.

Columns and labels:
[1] = Antiaggregating activity in Homo sapiens (human) platelet rich plasma assessed as ristocetin-induced platelet aggregation at 0.06 uM incubated for 4 min prior to ristocetin-induction measured for 5.5 min by turbidometric analysis (reference value: 65 to 99%); format: functional
Platelet [2] = test: Antiaggregating activity in Homo sapiens (human) platelet rich plasma assessed as inhibition of collagen-induced platelet aggregation at 0.06 uM incubated for 4 min prior to collagen-induction measured for 5.5 min by turbidometric analysis; format: functional, cell-free
Platelet [3] = test: Antiaggregating activity in Homo sapiens (human) platelet rich plasma assessed as inhibition of arachidonic acid-induced platelet aggregation at 0.06 uM incubated for 4 min prior to arachidonic acid-induction measured for 5.5 min by turbidometric analysis; format: functional, cell-free
[4] = Antiaggregating activity in Homo sapiens (human) platelet rich plasma assessed as ADP-induced platelet aggregation at 0.03 uM incubated for 4 min prior to ADP-induction measured for 5.5 min by turbidometric analysis (reference value: 54 to 88%); format: functional
Platelet [5] = test: Antiaggregating activity in Homo sapiens (human) platelet rich plasma assessed as inhibition of arachidonic acid-induced platelet aggregation at 0.125 uM incubated for 4 min prior to arachidonic acid-induction measured for 5.5 min by turbidometric analysis; format: functional, cell-free
Platelet [6] = test: Antiaggregating activity in Homo sapiens (human) platelet rich plasma assessed as inhibition of adrenaline-induced platelet aggregation at 0.03 uM incubated for 4 min prior to adrenaline-induction measured for 5.5 min by turbidometric analysis; format: functional, cell-free
Platelet [7] = test: (§1) Antiaggregating activity in Homo sapiens (human) platelet rich plasma assessed as inhibition of arachidonic acid-induced platelet aggregation at 0.5 uM incubated for 4 min prior to arachidonic acid-induction measured for 5.5 min by turbidometric analysis; format: functional
Platelet [8] = test: Antiaggregating activity in Homo sapiens (human) platelet rich plasma assessed as inhibition of collagen-induced platelet aggregation at 1 uM incubated for 4 min prior to collagen-induction measured for 5.5 min by turbidometric analysis; format: functional, cell-free
Platelet [9] = test: Antiaggregating activity in Homo sapiens (human) platelet rich plasma assessed as inhibition of collagen-induced platelet aggregation at 0.5 uM incubated for 4 min prior to collagen-induction measured for 5.5 min by turbidometric analysis; format: functional, cell-free
Platelet [10] = test: Antiaggregating activity in Homo sapiens (human) platelet rich plasma assessed as inhibition of collagen-induced platelet aggregation at 0.125 uM incubated for 4 min prior to collagen-induction measured for 5.5 min by turbidometric analysis; format: functional, cell-free
Platelet [11] = test: Antiaggregating activity in Homo sapiens (human) platelet rich plasma assessed as inhibition of ADP-induced platelet aggregation at 0.5 uM incubated for 4 min prior to ADP-induction measured for 5.5 min by turbidometric analysis; format: functional, cell-free
[12] = Antiaggregating activity in Homo sapiens (human) platelet rich plasma assessed as ristocetin-induced platelet aggregation at 0.5 uM incubated for 4 min prior to ristocetin-induction measured for 5.5 min by turbidometric analysis (reference value: 65 to 99%); format: functional
[13] = Antiaggregating activity in Homo sapiens (human) platelet rich plasma assessed as arachidonic acid-induced platelet aggregation at 0.03 uM incubated for 4 min prior to arachidonic acid-induction measured for 5.5 min by turbidometric analysis (reference value: 55 to 100%); format: functional
Platelet [14] = test: Antiaggregating activity in Homo sapiens (human) platelet rich plasma assessed as inhibition of arachidonic acid-induced platelet aggregation at 1 uM incubated for 4 min prior to arachidonic acid-induction measured for 5.5 min by turbidometric analysis; format: functional, cell-free
Platelet [15] = test: Antiaggregating activity in Homo sapiens (human) platelet rich plasma assessed as inhibition of ADP-induced platelet aggregation at 0.125 uM incubated for 4 min prior to ADP-induction measured for 5.5 min by turbidometric analysis; format: functional, cell-free
Platelet [16] = test: Antiaggregating activity in Homo sapiens (human) platelet rich plasma assessed as inhibition of adrenaline-induced platelet aggregation at 0.06 uM incubated for 4 min prior to adrenaline-induction measured for 5.5 min by turbidometric analysis; format: functional, cell-free
Platelet [17] = test: Antiaggregating activity in Homo sapiens (human) platelet rich plasma assessed as inhibition of ADP-induced platelet aggregation at 1 uM incubated for 4 min prior to ADP-induction measured for 5.5 min by turbidometric analysis; format: functional, cell-free
[18] = Antiaggregating activity in Homo sapiens (human) platelet rich plasma assessed as ristocetin-induced platelet aggregation at 1 uM incubated for 4 min prior to ristocetin-induction measured for 5.5 min by turbidometric analysis (reference value: 65 to 99%); format: functional
[19] = Antiaggregating activity in Homo sapiens (human) platelet rich plasma assessed as ristocetin-induced platelet aggregation at 0.125 uM incubated for 4 min prior to ristocetin-induction measured for 5.5 min by turbidometric analysis (reference value: 65 to 99%); format: functional
[20] = Antiaggregating activity in Homo sapiens (human) platelet rich plasma assessed as disaggregation of ADP-induced platelet aggregation at 0.06 uM incubated for 4 min prior to ADP-induction measured for 5.5 min by turbidometric analysis relative to control; format: functional
[21] = Antiaggregating activity in Homo sapiens (human) platelet rich plasma assessed as collagen-induced platelet aggregation at 0.03 uM incubated for 4 min prior to collagen-induction measured for 5.5 min by turbidometric analysis (reference value: 50 to 98%); format: functional
[22] = Antiaggregating activity in Homo sapiens (human) platelet rich plasma assessed as ristocetin-induced platelet aggregation at 0.03 uM incubated for 4 min prior to ristocetin-induction measured for 5.5 min by turbidometric analysis (reference value: 65 to 99%); format: functional
Platelet [23] = test: Antiaggregating activity in Homo sapiens (human) platelet rich plasma assessed as inhibition of adrenaline-induced platelet aggregation at 0.5 uM incubated for 4 min prior to adrenaline-induction measured for 5.5 min by turbidometric analysis; format: functional, cell-free
Platelet [24] = test: Antiaggregating activity in Homo sapiens (human) platelet rich plasma assessed as inhibition of adrenaline-induced platelet aggregation at 0.125 uM incubated for 4 min prior to adrenaline-induction measured for 5.5 min by turbidometric analysis; format: functional, cell-free
Platelet [25] = test: Antiaggregating activity in Homo sapiens (human) platelet rich plasma assessed as inhibition of adrenaline-induced platelet aggregation at 1 uM incubated for 4 min prior to adrenaline-induction measured for 5.5 min by turbidometric analysis; format: functional, cell-free
Platelet [26] = test: Antiaggregating activity in Homo sapiens (human) platelet rich plasma assessed as inhibition of ADP-induced platelet aggregation at 2 uM incubated for 4 min prior to ADP-induction measured for 5.5 min by turbidometric analysis; format: functional, cell-free
Platelet [27] = test: Antiaggregating activity in Homo sapiens (human) platelet rich plasma assessed as inhibition of adrenaline-induced platelet aggregation at 2 uM incubated for 4 min prior to adrenaline-induction measured for 5.5 min by turbidometric analysis; format: functional, cell-free
[28] = Antiaggregating activity in Homo sapiens (human) platelet rich plasma assessed as disaggregation of ADP-induced platelet aggregation at 1 uM incubated for 4 min prior to ADP-induction measured for 5.5 min by turbidometric analysis relative to control; format: functional
[29] = as §1; format: functional; parameters: scale not given: the % may be the effect or the level left
Platelet [30] = test: Antiaggregating activity in Homo sapiens (human) platelet rich plasma assessed as inhibition of ristocetin-induced platelet aggregation at 2 uM incubated for 4 min prior to ristocetin-induction measured for 5.5 min by turbidometric analysis; format: functional, cell-free
[31] = Antiaggregating activity in Homo sapiens (human) platelet rich plasma assessed as ristocetin-induced platelet aggregation at 0.25 uM incubated for 4 min prior to ristocetin-induction measured for 5.5 min by turbidometric analysis (reference value: 65 to 99%); format: functional
Platelet [32] = test: Antiaggregating activity in Homo sapiens (human) platelet rich plasma assessed as inhibition of arachidonic acid-induced platelet aggregation at 2 uM incubated for 4 min prior to arachidonic acid-induction measured for 5.5 min by turbidometric analysis; format: functional, cell-free
[33] = Antiaggregating activity in Homo sapiens (human) platelet rich plasma assessed as ADP-induced platelet aggregation at 0.25 uM incubated for 4 min prior to ADP-induction measured for 5.5 min by turbidometric analysis (reference value: 54 to 88%); format: functional
[34] = (§2) Antiaggregating activity in Homo sapiens (human) platelet rich plasma assessed as inhibition of collagen-induced platelet aggregation at 0.25 uM incubated for 4 min prior to collagen-induction measured for 5.5 min by turbidometric analysis; format: functional; parameters: scale not given: the % may be the effect or the level left
[35] = Antiaggregating activity in Homo sapiens (human) platelet rich plasma assessed as adrenaline-induced platelet aggregation at 0.25 uM incubated for 4 min prior to adrenaline-induction measured for 5.5 min by turbidometric analysis (reference value: 65 to 100%); format: functional
Platelet [36] = test: Antiaggregating activity in Homo sapiens (human) platelet rich plasma assessed as inhibition of collagen-induced platelet aggregation at 2 uM incubated for 4 min prior to collagen-induction measured for 5.5 min by turbidometric analysis; format: functional, cell-free
Platelet [37] = test: Antiaggregating activity in Homo sapiens (human) platelet rich plasma assessed as inhibition of ADP-induced platelet aggregation at 0.25 uM incubated for 4 min prior to ADP-induction measured for 5.5 min by turbidometric analysis; format: functional, cell-free
Platelet [38] = test: Antiaggregating activity in Homo sapiens (human) platelet rich plasma assessed as inhibition of arachidonic acid-induced platelet aggregation at 0.25 uM incubated for 4 min prior to arachidonic acid-induction measured for 5.5 min by turbidometric analysis; format: functional, cell-free
Platelet [39] = test: Antiaggregating activity in Homo sapiens (human) platelet rich plasma assessed as inhibition of adrenaline-induced platelet aggregation at 0.25 uM incubated for 4 min prior to adrenaline-induction measured for 5.5 min by turbidometric analysis; format: functional, cell-free
Platelet [40] = test: Antiaggregating activity in Homo sapiens (human) platelet rich plasma assessed as inhibition of ristocetin-induced platelet aggregation at 1 uM incubated for 4 min prior to ristocetin-induction measured for 5.5 min by turbidometric analysis; format: functional, cell-free
Platelet [41] = test: as §2; format: functional
Platelet [42] = test: Antiaggregating activity in Homo sapiens (human) platelet rich plasma assessed as inhibition of adrenaline-induced platelet aggregation at 0.1 uM incubated for 4 min prior to adrenaline-induction measured for 5.5 min by turbidometric analysis; format: functional, cell-free
[43] = Antiaggregating activity in Homo sapiens (human) platelet rich plasma assessed as disaggregation of ADP-induced platelet aggregation at 0.25 uM incubated for 4 min prior to ADP-induction measured for 5.5 min by turbidometric analysis relative to control; format: functional
[44] = Antiaggregating activity in Homo sapiens (human) platelet rich plasma assessed as ristocetin-induced platelet aggregation at 0.1 uM incubated for 4 min prior to ristocetin-induction measured for 5.5 min by turbidometric analysis (reference value: 65 to 99%); format: functional
Platelet [45] = test: Antiaggregating activity in Homo sapiens (human) platelet rich plasma assessed as inhibition of collagen-induced platelet aggregation at 0.1 uM incubated for 4 min prior to collagen-induction measured for 5.5 min by turbidometric analysis; format: functional, cell-free
[46] = Antiaggregating activity in Homo sapiens (human) platelet rich plasma assessed as ADP-induced platelet aggregation at 0.1 uM incubated for 4 min prior to ADP-induction measured for 5.5 min by turbidometric analysis (reference value: 54 to 88%); format: functional
[47] = Antiaggregating activity in Homo sapiens (human) platelet rich plasma assessed as arachidonic acid-induced platelet aggregation at 0.1 uM incubated for 4 min prior to arachidonic acid-induction measured for 5.5 min by turbidometric analysis (reference value: 55 to 100%); format: functional
[48] = Antiaggregating activity in Homo sapiens (human) platelet rich plasma assessed as disaggregation of ristocetin-induced platelet aggregation at 0.25 uM incubated for 4 min prior to ristocetin-induction measured for 5.5 min by turbidometric analysis relative to control; format: functional
Platelet [49] = test: Antiaggregating activity in Homo sapiens (human) platelet rich plasma assessed as inhibition of collagen-induced platelet aggregation at 0.03 uM incubated for 4 min prior to collagen-induction measured for 5.5 min by turbidometric analysis; format: functional, cell-free

SMILES | Activity [1] | inhibition (Platelet [2]) | inhibition (Platelet [3]) | Activity [4] | inhibition (Platelet [5]) | inhibition (Platelet [6]) | inhibition (Platelet [7]) | inhibition (Platelet [8]) | inhibition (Platelet [9]) | inhibition (Platelet [10]) | inhibition (Platelet [11]) | Activity [12] | Activity [13] | inhibition (Platelet [14]) | inhibition (Platelet [15]) | inhibition (Platelet [16]) | inhibition (Platelet [17]) | Activity [18] | inhibition (Platelet [23]) | inhibition (Platelet [25]) | also measured
Br.O=C(C1CCCN(Cc2ccc(CN3CCCC(C(=O)N4CCN(c5ccccc5Cl)CC4)C3)cc2)C1)N1CCN(c2ccccc2Cl)CC1 (stereo not given) | 61% | Active | Active | 84% | Active | Active | Active | Active | Active | Active | Active | 35% | 58% | Active | Active | Active | Active | 30% | Active | Active | Activity [19]: 31%; Activity [20]: 27%; Activity [21]: 76%; Activity [22]: 78%; inhibition (Platelet [24]): Active
O=C(c1ccc[n+](Cc2ccccc2)c1)N1CCN(C(=O)c2ccc[n+](Cc3ccccc3)c2)CC1.[Cl-].[Cl-] |  |  |  |  |  |  |  | Active |  |  |  |  |  | Active |  |  |  | 73% |  | Active | inhibition (Platelet [26]): Active; inhibition (Platelet [27]): Active; Activity [28]: 25%; Activity [29]: 71%; inhibition (Platelet [30]): Active; Activity [31]: 80%; inhibition (Platelet [32]): Active; Activity [33]: 28%; Activity [34]: 79%; Activity [35]: 66%; inhibition (Platelet [36]): Active
COc1cc(C(=O)[n+]2cccc(C(=O)N3CCN(c4ccccc4Cl)CC3)c2)cc(OC)c1OC.[Cl-] |  |  |  |  |  |  | Active | Active | Active |  | Active | 20% |  | Active |  |  | Active |  | Active | Active | inhibition (Platelet [37]): Active; inhibition (Platelet [38]): Active; inhibition (Platelet [39]): Active; Activity [31]: 79%; inhibition (Platelet [40]): Active; inhibition (Platelet [41]): Active
Cl.O=C(C1CCCN(Cc2ccccc2F)C1)N1CCN(c2ccccc2Cl)CC1 (stereo not given) |  |  |  |  |  |  | Active | Active | Active |  | Active | 73% |  | Active |  |  | Active | 50% | Active | Active | inhibition (Platelet [42]): Active; inhibition (Platelet [38]): Active; Activity [43]: 38%; Activity [44]: 50%; inhibition (Platelet [39]): Active; inhibition (Platelet [45]): Active; Activity [46]: 74%; Activity [47]: 59%; inhibition (Platelet [41]): Active; Activity [48]: 18%
Br.O=C(C1CCCN(Cc2ccc(Br)cc2)C1)N1CCN(c2ccccc2Cl)CC1 (stereo not given) | 62% | Active | Active | 55% | Active | Active |  | Active |  | Active |  |  | 56% | Active | Active | Active | Active | 39% |  | Active | Activity [19]: 53%; Activity [20]: 20%; inhibition (Platelet [49]): Active; Activity [22]: 67%; inhibition (Platelet [24]): Active
